Laboratory results: patent publication US4223137A, “Carbostyril derivatives and process for preparing the same” (Otsuka Pharmaceutical Co., Ltd., priority 1976, dated 1980)
Where “and” joins values, the source holds several entries; their conditions need not be identical. Identical values can stand only once. Counter-ions that a name gives are not always drawn. Like-named read-outs stand apart in the source and are kept apart here.

Assays:
β-adrenoreceptor [1] = target: T1, β-adrenoreceptor (Canis lupus familiaris, UniProt P54833); experiment: Inhibition of histamine-induced bronchial resistance increase (bronchospasm), i.v., Konzett-Rossler method, anesthetized dogs; type: in vivo, dog (male hybrid adult dogs); settings: for Bronchial Resistance (BR) Relative Potency: ED50 compared to isoproterenol as standard compound; for ED50: dog, iv
T1 construct: from tissue; host or cells: airways of anesthetized dogs, in vivo
Experimental: (§1) The stimulating activity of the compounds of this invention on β-adrenoreceptor was determined as follows: Male hydrid adult dogs, weighing 10 to 15 kg, were anesthesized with sodium pentobartital administered intravenously at a level of 30 mg/kg of body weight. Each of the anesthesized dogs was secured on its back and a cannula was inserted into the trachea.
(§2) In the above procedure, histamine was employed as a bronchoconstrictor at a dosage level of 10 μg/kg of body weight, and an aqueous solution containing each of the test compounds and controls shown in Table 1 below was then administered to each of the anesthesized dogs through the femoral vein at the various dosage levels as shown in Table 1 below 1 minute before the administration of the histamine. Sodium pentobartital was infused during the procedure at a dosage level of 4 mg/kg of body weight/hr using an automatic injector in order to inhibit spontaneous respiration and to maintain the anesthetic condition constant over the test period.
(§3) ED50 values were calculated using a Dose Response curve. At the same time the pulse was measured through a transducer and the value was recorded on a polygraph.

β2-receptor = experiment: Separation of bronchial resistance effect from heart rate effect (β2 selectivity), anesthetized dogs; type: in vivo, dog (male hybrid adult dogs); settings: i.v.
Experimental: (§4) The stimulating activity of the compounds of this invention on β-adrenoreceptor was determined as follows: Male hydrid adult dogs, weighing 10 to 15 kg, were anesthesized with sodium pentobartital administered intravenously at a level of 30 mg/kg of body weight. Each of the anesthesized dogs was secured on its back and a cannula was inserted into the trachea. Artificial respiration was conducted using a device according to the Konzett-Rossler method (Konzett H. & Rossler R., "Versuchsanordnug zu Untersuchungen an der Bronchial Moskolatur", Arch. Exp. Path., Pharmack, 195, 71-74, 27-40 (1940). The volume of the air which overflowed at the time of inhalation was measured through a pneumotachometer to determine the bronchial resistance and the values obtained were recorded on a polygraph.
as §2, §3

β-adrenoreceptor [2] = experiment: Heart rate (pulse) increase, i.v., anesthetized dogs; type: in vivo, dog (male hybrid adult dogs); settings: for Heart Rate (HR) ED25 beats/min, Compound: pulse increase; for Heart Rate (HR) Relative Potency: ED25 compared to isoproterenol as standard compound
Experimental: as §1, §2, §3

[3] = Acute toxicity by intravenous administration; settings: rat, in vivo, i.v., male rats (dd strain, 18 to 22 g), fasted 12 hours, read-out: LD50 (50% lethal dose)
Experimental: Further, the acute toxicity by intravenous administration was determined with respect to the test compounds shown in Table 2 below using 5 to 6 groups each containing 10 male rats (dd strain; body weight: 18 to 22 g) which had been fasted for 12 hours prior to the test. The LD50 (50% lethal dose) results are as follows.

β-adrenoreceptor [4] = experiment: Persistence (duration) of inhibition of histamine-induced bronchospasm, anesthetized dogs; type: in vivo, dog; settings: FIGURE, i.v. 1 μg/kg, versus Compound (2)
Experimental: as §4, with “[…],” for “Pharmack,”, “polygraph. […] Sodium pentobartital was infused during the procedure at a dosage level of 4 mg/kg of body weight/hr using an automatic injector in order to inhibit spontaneous respiration and to maintain the anesthetic condition constant over the test period. The persistance time was determined by administering to a subject a test compound in such a dose that a histamine-induced bronchospasm is inhibited completely (100%), in the same manner as described above and observing the persistance of the activity of the test compound with the lapse of time.” for “polygraph.”

[5] = i.v. 1 minute before histamine 10 μg/kg, anesthetized dogs, read-out: Bronchial Resistance (BR) ED50, Compound
[6] = read-out: Bronchial Resistance (BR) ED50, Compound

T1 sequence (P54833 whole entry): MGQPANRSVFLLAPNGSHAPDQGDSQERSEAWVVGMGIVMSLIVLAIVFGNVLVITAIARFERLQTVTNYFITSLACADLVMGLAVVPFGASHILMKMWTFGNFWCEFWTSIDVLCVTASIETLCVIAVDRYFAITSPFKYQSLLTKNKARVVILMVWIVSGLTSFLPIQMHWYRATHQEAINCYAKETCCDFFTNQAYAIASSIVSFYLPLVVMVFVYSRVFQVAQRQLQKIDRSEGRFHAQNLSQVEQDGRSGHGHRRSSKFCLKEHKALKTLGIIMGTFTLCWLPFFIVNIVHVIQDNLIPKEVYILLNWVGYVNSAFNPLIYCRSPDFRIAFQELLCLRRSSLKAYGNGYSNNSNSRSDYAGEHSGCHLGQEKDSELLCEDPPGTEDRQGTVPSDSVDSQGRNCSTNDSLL

Row | SMILES | Bronchial Resistance (BR) Relative Potency (β-adrenoreceptor [1]) | ED50 (β-adrenoreceptor [1]; [5]) | Separation Ratio HR(Relative Potency)/BR(Relative Potency) (β2-receptor) | Heart Rate (HR) ED25 beats/min, Compound (β-adrenoreceptor [2]; i.v., anesthetized dogs) | Heart Rate (HR) Relative Potency (β-adrenoreceptor [2]) | LD50 [3] | ED50 (β-adrenoreceptor [1]; [6]) | Bronchial Resistance (BR) ED50, Compound (β-adrenoreceptor [1]; i.v. 1 minute before histamine 10 μg/kg, anesthetized dogs) | duration of β-stimulation activity on histamine-induced bronchospasm (β-adrenoreceptor [4]) | ED50 (β-adrenoreceptor [1]; read-out: Bronchial Resistance (BR) ED50, Isoproterenol, isoproterenol as standard compound for the compound of the same line, i.v., anesthetized dogs) | Heart Rate (HR) ED25 beats/min, Isoproterenol (β-adrenoreceptor [2]; isoproterenol as standard compound for the compound of the same line, i.v., anesthetized dogs)
1 | CC(C)C(=O)Oc1ccc(C(O)C(C)NC(C)(C)C)c2ccc(=O)[nH]c12 (stereo not shown) [(14), 8-isobutyryloxy-5-(1-hydroxy-2-tert-butylaminopropyl)carbostyril] | 3.92 | 0.47 µg/kg | 12.3 | 3.86 µg/kg | 48.3 |  |  |  |  |  | 
2 | CCC(NC(C)C)C(OC(=O)C1CCCCC1)c1ccc(OC(=O)c2ccc(C)cc2)c2[nH]c(=O)ccc12.Cl (stereo not shown) [(13), 8-(4-methylbenzoyloxy)-5-(1-cyclohexylcarbonyloxy-2-isopropylaminobutyl)carbostyril hydrochloride] | 5.92 |  | 11.3 | 6.02 µg/kg | 66.9 | 147000 µg/kg | 0.71 µg/kg |  |  |  | 
3 | CCNC(CC)C(O)c1ccc(OC(=O)CC(C)C2CCCCC2)c2[nH]c(=O)ccc12.Cl (stereo not shown) [(5), 8-(3-cyclohexylbutyryloxy)-5-(1-hydroxy-2-ethylaminobutyl)carbostyril hydrochloride] | 5.15 |  | 12.7 | 6.5 µg/kg | 65.4 |  | 0.67 µg/kg |  |  |  | 
4 | CCC(NC(C)C)C(O)c1ccc(OC(=O)Cc2ccccc2)c2[nH]c(=O)ccc12.Cl (stereo not shown) [(7), 8-phenylacetoxy-5-(1-hydroxy-2-isopropylaminobutyl)carbostyril hydrochloride] |  |  |  | 1.39 µg/kg |  |  | 0.17 µg/kg |  |  |  | 
5 | CCC(NCc1ccccc1)C(O)c1ccc(OC(=O)c2ccc(Cl)cc2)c2[nH]c(=O)ccc12.Cl (stereo not shown) [(11), 8-(4-chlorobenzoyloxy)-5-(1-hydroxy-2-benzylaminobutyl)carbostyril hydrochloride] | 6.50 |  | 7.2 | 4.2 µg/kg | 46.7 |  | 0.91 µg/kg |  |  |  | 
6 | CC(C)(C)NCC(O)c1ccc(O)c(CO)c1 (stereo not shown) [Salubutamol (1), Salbutamol, reference compound] | 6.1 |  | 7.52 | 2.8 µg/kg | 45.9 |  |  | 0.52 µg/kg |  |  | 
7 | CCNC(CC)C(O)c1ccc(OC(=O)c2ccc(C)cc2)c2[nH]c(=O)ccc12.Cl (stereo not shown) [(9), 8-(4-methylbenzoyloxy)-5-(1-hydroxy-2-ethylaminobutyl)carbostyril hydrochloride] | 1.06 |  | 14.5 | 1.7 µg/kg | 15.5 | 132000 µg/kg | 0.16 µg/kg |  |  |  | 
8 | CCC(NC(C)C)C(O)c1ccc(OC(=O)C(C)C)c2nc(OC(=O)C(C)C)ccc12.Cl (stereo not shown) [(10), 2,8-diisobutyryloxy-5-(1-hydroxy-2-isopropylaminobutyl)quinoline hydrochloride] | 5.94 |  | 9.5 | 5.6 µg/kg | 56.4 |  | 0.95 µg/kg |  | exhibit a long-lasting β-stimulation activity on histamine-induced bronchospasm as compared with that of the comparative compound |  | 
9 | CC(C)NCC(O)c1ccc(O)c(O)c1 (stereo not shown) [Isoproterenol, reference compound] |  |  |  |  |  |  |  |  |  | 0.19 µg/kg | 0.07 µg/kg and 0.10 µg/kg
10 | CCNC(CC)C(O)c1ccc(O)c2[nH]c(=O)ccc12.Cl (stereo not shown) [Compound (2), 8-hydroxy-5-(1-hydroxy-2-ethylaminobutyl)carbostyril hydrochloride, reference compound] | 3.47 |  | 11.5 | 3.6 µg/kg | 40.0 |  | 0.66 µg/kg |  |  |  | 
11 | CCC(NC(C)C)C(OC(=O)c1ccc(C)cc1)c1ccc(OC(=O)c2ccc(C)cc2)c2c1CCC(=O)N2 (stereo not shown) [(12), 8-(4-methylbenzoyloxy)-5-[(1-(4-methylbenzoyloxy)-2-isopropylaminobutyl]-3,4-dihydrocarbostyril hydrochloride] | 7.30 | 0.73 µg/kg | 10.3 | 8.3 µg/kg | 75.5 | 153000 µg/kg |  |  |  |  | 
12 | CCC(NC(C)C)C(O)c1ccc(OC(=O)CC(C)(C)C)c2[nH]c(=O)ccc12 (stereo not shown) [(6)] | 3.52 | 0.42 µg/kg | 13.1 | 3.2 µg/kg | 46.1 | 107000 µg/kg |  |  |  |  | 
13 | CCC(NC(C)C)C(OC(C)=O)c1ccc(OC(C)=O)c2[nH]c(=O)ccc12.Cl (stereo not shown) [(3), 8-acetoxy-5-(1-acetoxy-2-isopropylaminobutyl)carbostyril hydrochloride] | 5.85 |  | 11.0 | 4.5 µg/kg | 64.4 | 112000 µg/kg | 0.82 µg/kg |  | exhibit a long-lasting β-stimulation activity on histamine-induced bronchospasm as compared with that of the comparative compound |  | 
14 | COc1ccc(CCNCC(OC(=O)C2CC2)c2ccc(OC(=O)C3CC3)c3[nH]c(=O)ccc23)cc1OC (stereo not shown) [(8), 8-cyclopropylcarbonyloxy)-5-[1-cyclopropylcarbonyloxy-2-(3,4-dimethoxyphenethylamino)ethyl]carbostyril hydrochloride] | 4.64 | 0.51 µg/kg | 14.8 | 4.81 µg/kg | 68.7 | 123000 µg/kg |  |  |  |  | 
15 | CCNC(CC)C(O)c1ccc(OC(C)=O)c2[nH]c(=O)ccc12.Cl (stereo not shown) [(4), 8-acetoxy-5-(1-hydroxy-2-ethylaminobutyl)carbostyril hydrochloride] | 3.81 |  | 11.8 | 3.6 µg/kg | 45.0 | 105000 µg/kg | 0.61 µg/kg |  | exhibit a long-lasting β-stimulation activity on histamine-induced bronchospasm as compared with that of the comparative compound |  | 
